From PubChem BioAssay (NCI) come the findings set out here.

SMILES strings stand for the structures.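 How tested: cells in 96-well plates exposed to compound for 48 hours at five concentrations. The concentration for full growth arrest is given as TGI.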

Some test systems named below: OVCAR-3 ovarian; 786-0 renal; LOX IMVI melanoma; SNB-19 CNS; HOP-62 NSCLC; UACC-257 melanoma; NCI/ADR-RES ovarian; SN12C renal; CCRF-CEM leukemia; MDA-MB-435; SR leukemia; OVCAR-5 ovarian.
Common to all, as to test: NCI anticancer screen, dose series, 48 h

Regarding `COC(=O)/C=C1/OC(c2ccccc2)=C(Cl)C1=O`, the TGI with OVCAR-3 ovarian was 33.8 µM; in the assay with 786-0 renal it was 33.7 µM; in the assay with LOX IMVI melanoma, 26.8 µM; with SNB-19 CNS, greater than 66.9 µM; in the assay with HOP-62 NSCLC it was greater than 58 µM; in the assay with UACC-257 melanoma, 66 µM. Further, the TGI with NCI/ADR-RES ovarian was 61.9 µM; with SN12C renal, greater than 60.1 µM; in the assay on CCRF-CEM leukemia it was 19.9 µM; in the assay with MDA-MB-435, 39.5 µM; in the assay with SR leukemia, 17.9 µM; with OVCAR-5 ovarian it was 35.6 µM.
Turning to `Cn1c2ccccc2n2c3nc4ccccc4nc3c(C#N)c12`, the TGI in the assay with OVCAR-3 ovarian, with 786-0 renal, in the assay on LOX IMVI melanoma, in the assay with SNB-19 CNS, in the assay on HOP-62 NSCLC and with UACC-257 melanoma was greater than 100 µM throughout. The TGI with NCI/ADR-RES ovarian, in the assay on SN12C renal, in the assay with CCRF-CEM leukemia, in the assay on MDA-MB-435, in the assay on SR leukemia and with OVCAR-5 ovarian was greater than 100 µM throughout.
As to `Cc1nc2ccccc2n1CCc1nc2ccccc2s1`, the TGI with OVCAR-3 ovarian, with 786-0 renal, in the assay on LOX IMVI melanoma, in the assay with SNB-19 CNS, with HOP-62 NSCLC and in the assay with UACC-257 melanoma was greater than 100 µM throughout. Moreover, the TGI with NCI/ADR-RES ovarian, with SN12C renal, in the assay on CCRF-CEM leukemia, in the assay with MDA-MB-435, with SR leukemia and in the assay with OVCAR-5 ovarian was greater than 100 µM each time.
Consider `COc1ccc(CN=CN/C(C#N)=C(\N)C#N)cc1OC`, for which the TGI with OVCAR-3 ovarian, in the assay with 786-0 renal, in the assay with LOX IMVI melanoma, with SNB-19 CNS, with HOP-62 NSCLC and in the assay on UACC-257 melanoma was greater than 100 µM each time. The TGI in the assay on NCI/ADR-RES ovarian, in the assay on SN12C renal, with CCRF-CEM leukemia, with MDA-MB-435, in the assay on SR leukemia and in the assay with OVCAR-5 ovarian was greater than 100 µM each time.
As to `CC(=O)C(=C(I)I)c1ccccc1`, the TGI was 30.3 µM with OVCAR-3 ovarian; 40.3 µM in the assay on 786-0 renal; 49.1 µM in the assay with LOX IMVI melanoma; 37.2 µM in the assay on SNB-19 CNS; 38.7 µM in the assay on HOP-62 NSCLC; 32.7 µM with UACC-257 melanoma. For the same compound, the TGI is 49 µM with NCI/ADR-RES ovarian; 28.4 µM with SN12C renal; 31.7 µM with CCRF-CEM leukemia; 29.9 µM with MDA-MB-435; 35.5 µM in the assay with SR leukemia; 45.7 µM in the assay with OVCAR-5 ovarian.
Turning to `CSc1n[n+](C)cc(N)c1N`, the TGI in the assay with OVCAR-3 ovarian was greater than 100 µM; with 786-0 renal it was greater than 100 µM; in the assay on LOX IMVI melanoma, greater than 100 µM; in the assay with SNB-19 CNS it was 97.7 µM; in the assay with HOP-62 NSCLC, greater than 100 µM; in the assay with UACC-257 melanoma, greater than 100 µM. The TGI with NCI/ADR-RES ovarian, with SN12C renal, in the assay on CCRF-CEM leukemia, with MDA-MB-435, in the assay on SR leukemia and with OVCAR-5 ovarian was greater than 100 µM throughout.
Regarding `O=C(O)C(Cc1cccs1)C(=O)O`, the TGI with OVCAR-3 ovarian, in the assay with 786-0 renal, in the assay with LOX IMVI melanoma, with SNB-19 CNS, in the assay with HOP-62 NSCLC and in the assay with UACC-257 melanoma was greater than 100 µM in each case. The TGI in the assay on NCI/ADR-RES ovarian, in the assay on SN12C renal, in the assay on CCRF-CEM leukemia, in the assay on MDA-MB-435, with SR leukemia and with OVCAR-5 ovarian was greater than 100 µM throughout.
Regarding `Cc1cc2ccccc2c[n+]1CC(=O)CC([O-])(C(F)(F)F)C(F)(F)F`, the TGI in the assay with OVCAR-3 ovarian, in the assay with 786-0 renal, in the assay on LOX IMVI melanoma, in the assay on SNB-19 CNS, in the assay with HOP-62 NSCLC and in the assay on UACC-257 melanoma was greater than 100 µM throughout. Moreover, the TGI in the assay with NCI/ADR-RES ovarian, in the assay on SN12C renal, with CCRF-CEM leukemia, with MDA-MB-435, in the assay with SR leukemia and in the assay with OVCAR-5 ovarian was greater than 100 µM in each case.
`Cc1nc2c(Br)cc(Br)cc2c(=O)n1-c1ccccc1N`: the TGI in the assay with OVCAR-3 ovarian is greater than 100 µM; in the assay with 786-0 renal it was greater than 100 µM; in the assay on LOX IMVI melanoma it was greater than 100 µM; in the assay with SNB-19 CNS, greater than 100 µM; in the assay on HOP-62 NSCLC, greater than 100 µM; in the assay on UACC-257 melanoma, 86.5 µM. The TGI in the assay with NCI/ADR-RES ovarian, in the assay on SN12C renal, in the assay with CCRF-CEM leukemia, with MDA-MB-435, in the assay with SR leukemia and with OVCAR-5 ovarian was greater than 100 µM in each case.
Consider `Nc1cc(CO)cc(Nc2c3ccccc3nc3occc23)c1`, for which the TGI is greater than 100 µM in the assay with OVCAR-3 ovarian; 77.4 µM in the assay on 786-0 renal; greater than 100 µM in the assay with LOX IMVI melanoma; greater than 100 µM in the assay with SNB-19 CNS; greater than 100 µM in the assay on HOP-62 NSCLC; greater than 100 µM with UACC-257 melanoma. Also, the TGI in the assay with NCI/ADR-RES ovarian is 62.6 µM; with SN12C renal, greater than 100 µM; with CCRF-CEM leukemia, greater than 100 µM; with MDA-MB-435, 41.9 µM; with SR leukemia, 27.3 µM; in the assay on OVCAR-5 ovarian, greater than 100 µM.
With `O=C(CSc1nc2ccc(I)cc2c(=O)n1Cc1ccccc1)Nc1ccc(Br)cc1`, the TGI with OVCAR-3 ovarian, in the assay on 786-0 renal, in the assay on LOX IMVI melanoma, in the assay with SNB-19 CNS, with HOP-62 NSCLC and in the assay on NCI/ADR-RES ovarian was greater than 100 µM throughout. The TGI in the assay with SN12C renal is greater than 100 µM; in the assay with CCRF-CEM leukemia, greater than 100 µM; with MDA-MB-435, greater than 100 µM; with SR leukemia, 27.4 µM; in the assay on OVCAR-5 ovarian it was greater than 100 µM.
Consider `COc1ccc(-c2cc(-c3ccc(Nc4ccnc5cc(Cl)ccc45)cc3)nc(N)c2C#N)c2ccccc12`, for which the TGI with 786-0 renal, with LOX IMVI melanoma, in the assay with SNB-19 CNS, in the assay with HOP-62 NSCLC, with UACC-257 melanoma and in the assay with NCI/ADR-RES ovarian was greater than 100 µM in each case. The TGI with SN12C renal, in the assay on CCRF-CEM leukemia, in the assay with MDA-MB-435, with SR leukemia and with OVCAR-5 ovarian was greater than 100 µM throughout.
